# Several values for one entry are separate records, joined by “and”; a condition that tells them apart may be missing. Equal entries are not always repeated. Toxic doses and inconclusive results are not listed.
# Tested on: P388 leukemia ip, CD2F1 mice, survival T/C
# Assay: NCI In Vivo Anticancer Drug Screen. Data for tumor model P388 Leukemia (intraperitoneal) in CD2F1 (CDF1) mice
# Conditions: endpoint: median survival time, higher = longer survival
# Summary of the method: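 Mice carrying the transplanted tumor received test compound or vehicle. Survival was recorded in each group, and the value is the treated-group measurement divided by that of the vehicle-treated control group.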
# [1] = dose: 60.0 mg/kg/injection, schedule: Q01DX005 (ip), vehicle: saline with Tween-80
# [2] = dose: 120.0 mg/kg/injection, schedule: Q01DX005 (ip), vehicle: saline with Tween-80
# [3] = dose: 12.5 mg/kg/injection, schedule: Q01DX009 (ip), vehicle: saline with Tween-80
# [4] = dose: 25.0 mg/kg/injection, schedule: Q01DX009 (ip), vehicle: saline with Tween-80
# [5] = dose: 50.0 mg/kg/injection, schedule: Q01DX009 (ip), vehicle: saline with Tween-80
compound,measurement,setting,value
COc1cc(/C=C/C=C/c2ccccc2)oc(=O)c1,T/C,"dose: 100.0 mg/kg/injection, schedule: Q04DX003 (ip), vehicle: Klucel (hydroxypropylcellulose) (HPC)",91 % of control
same,T/C,"dose: 200.0 mg/kg/injection, schedule: Q04DX003 (ip), vehicle: Klucel (hydroxypropylcellulose) (HPC)",90 % of control
same,T/C,"dose: 400.0 mg/kg/injection, schedule: Q04DX003 (ip), vehicle: Klucel (hydroxypropylcellulose) (HPC)",92 % of control
C#CCCCOC1CCCCO1 (stereo not drawn),T/C,"dose: 60.0 mg/kg/injection, schedule: Q01DX005 (ip), vehicle: saline",100 % of control
same,T/C,"dose: 120.0 mg/kg/injection, schedule: Q01DX005 (ip), vehicle: saline",100 % of control
same,T/C,"dose: 240.0 mg/kg/injection, schedule: Q01DX005 (ip), vehicle: saline",100 % of control
NNC(=O)CC(N)=O,T/C,"dose: 12.5 mg/kg/injection, schedule: Q04DX003 (ip), vehicle: saline",95 % of control
same,T/C,"dose: 25.0 mg/kg/injection, schedule: Q04DX003 (ip), vehicle: saline",95 % of control
same,T/C,"dose: 50.0 mg/kg/injection, schedule: Q04DX003 (ip), vehicle: saline",96 % of control
same,T/C,"dose: 200.0 mg/kg/injection, schedule: Q04DX003 (ip), vehicle: saline",104 % of control
same,T/C,"dose: 400.0 mg/kg/injection, schedule: Q04DX003 (ip), vehicle: saline",100 % of control
Cc1cc2nc3c(nc2cc1C)CCCCCC3,T/C,"dose: 85.5 mg/kg/injection, schedule: Q01DX001 (ip), vehicle: Klucel (hydroxypropylcellulose) (HPC)",92 % of control
same,T/C,"dose: 171.0 mg/kg/injection, schedule: Q01DX001 (ip), vehicle: Klucel (hydroxypropylcellulose) (HPC)",90 % of control
same,T/C,"dose: 342.0 mg/kg/injection, schedule: Q01DX001 (ip), vehicle: Klucel (hydroxypropylcellulose) (HPC)",90 % of control
O=C(O)C1CCC(=O)N1Cc1c[nH]c2ccccc12 (stereo not drawn),T/C,[1],98 % of control
same,T/C,[2],94 % of control
same,T/C,"dose: 240.0 mg/kg/injection, schedule: Q01DX005 (ip), vehicle: saline with Tween-80",97 % of control
CSC(=S)N/N=C(/C)CC(C)C,T/C,[3],105 % of control
same,T/C,[4],120 % of control
same,T/C,[5],100 % of control
COc1cc2ccnc(CCCc3nccc4cc(OC)c(OC)cc34)c2cc1OC,T/C,"dose: 25.0 mg/kg/injection, schedule: Q04DX002 (ip), vehicle: Klucel (hydroxypropylcellulose) (HPC)",101 % of control
same,T/C,"dose: 50.0 mg/kg/injection, schedule: Q04DX002 (ip), vehicle: Klucel (hydroxypropylcellulose) (HPC)",95 % of control
same,T/C,"dose: 100.0 mg/kg/injection, schedule: Q04DX002 (ip), vehicle: Klucel (hydroxypropylcellulose) (HPC)",101 % of control and 104 % of control
CC1CCC(C(C)C)C2(C1)OC(CCl)CS2 (stereo not drawn),T/C,[3],106 % of control
same,T/C,[4],114 % of control
same,T/C,[5],114 % of control and 124 % of control
CCCCCCC(O)C/C=C\CCCCCCc1c(C(=O)OC)[nH]c(=S)[nH]c1=O (stereo not drawn),T/C,[1],94 % of control
same,T/C,[2],97 % of control
Cn1c2cc(=O)ccc2c2c3nc4ccccc4[nH]c3cc(O)c21,T/C,"dose: 50.0 mg/kg/injection, schedule: Q01DX009 (ip), vehicle: saline",98 % of control and 100 % of control
same,T/C,"dose: 100.0 mg/kg/injection, schedule: Q01DX009 (ip), vehicle: saline",95 % of control and 91 % of control
same,T/C,"dose: 200.0 mg/kg/injection, schedule: Q01DX009 (ip), vehicle: saline",100 % of control and 104 % of control
COc1cccc2c1C(=O)c1c(O)c3c(c(O)c1C2=O)C[C@@](O)(/C(C)=N/NC(=O)c1ccc(Cl)cc1)C[C@@H]3OC1CC(N)C(O)C(C)O1 (stereo partly drawn),T/C,"dose: 0.12 mg/kg/injection, schedule: Q01DX009 (ip), vehicle: water",110 % of control
same,T/C,"dose: 0.5 mg/kg/injection, schedule: Q01DX009 (ip), vehicle: water",155 % of control
same,T/C,"dose: 1.0 mg/kg/injection, schedule: Q01DX009 (ip), vehicle: water",180 % of control
same,T/C,"dose: 2.0 mg/kg/injection, schedule: Q01DX009 (ip), vehicle: water",161 % of control and 166 % of control
same,T/C,"dose: 4.0 mg/kg/injection, schedule: Q01DX009 (ip), vehicle: water",211 % of control
same,T/C,"dose: 5.0 mg/kg/injection, schedule: Q01DX001 (ip), vehicle: water",181 % of control
same,T/C,"dose: 8.0 mg/kg/injection, schedule: Q01DX009 (ip), vehicle: water",109 % of control
same,T/C,"dose: 10.0 mg/kg/injection, schedule: Q01DX001 (ip), vehicle: water",192 % of control
same,T/C,"dose: 20.0 mg/kg/injection, schedule: Q01DX001 (ip), vehicle: water",108 % of control
CC(=O)Nc1cn(C)cc1[N+](=O)[O-],T/C,[5],102 % of control
same,T/C,"dose: 100.0 mg/kg/injection, schedule: Q01DX009 (ip), vehicle: saline with Tween-80",103 % of control
same,T/C,"dose: 200.0 mg/kg/injection, schedule: Q01DX009 (ip), vehicle: saline with Tween-80",104 % of control

# Reference: PubChem BioAssay AID330 (DTP/NCI, 2004)
